The text below walks through data of patent US8906855B2, “Methods and compositions for treating conditions related to lack of blood supply, shock and neuronal injuries” (Vivacelle Bio, Inc., priority 2007, dated 2014).

For data set [1] the following is noted: Battion et al. 1968; cited from earlier work.
The conditions of data set [2]: 1 atm; from The Engineering Toolbox; cited from earlier work.
Data set [3] can be described thus: Nitric oxide uptake/content of the emulsion by mass spectrometry. Particulars: equilibrated 60 minutes with 100 ppm nitric oxide in helium; ten samples.
Protocol: Some samples (1 ml each) were left open to air in 2.0 ml tubes for 30 minutes prior to dissolved gas analysis. In other experiments the emulsion was placed into a 15 ml tube. The headspace was filled with the gas under study and the gas was allowed to enter the emulsion by equilibration over 60 minutes with the tube on its side to increase the gas emulsion interaction. 50 μL drawn from each of these fluids were injected into a Sievers purge vessel at 37° C. containing 36 ml of a mildly acidic solution consisting of 32 ml of 1M HCL and 4 ml of 0.5M ascorbic acid. […] Signals generated at m/z=32 upon injection of RL and lipid emulsion samples were integrated using Peakfit and compared to those obtained with distilled water.
In another set of experiments we measured the uptake of nitric oxide by a commercially available 20% soybean oil emulsion, Liposyn III 20%. This emulsion contains 20% soybean oil, 1.2% egg phospholipids and 2.5% glycerin in water. Using NaOH pH was adjusted to 8.3. […] 100 ppm nitric oxide in helium was used to purge the headspace for two minutes taking care not to bubble the fluid. For sixty minutes the sample was allowed to reach gas-liquid equilibrium with the tube placed on its side to maximize gas-emulsion contact. The ***nitric oxide content was measured in ten samples that were equilibrated with nitric oxide and ten samples that were equilibrated with room air.
For data set [4] the following is noted: cited from earlier work.
For data set [5] the following is noted: published value; cited from earlier work.

In the case of `O=O` [Oxygen], the “solubility in lipid relative to water” value in data set [1] is listed as 4.41 times.

For the compound `O` [Water, water], the “Oxygen Content at 25° C. and Sea level Pressure” value in data set [2] is recorded as 8.3 mg/L. Moreover, the “nitric oxide content, mean and standard error” value in data set [3] was 2.12×10^−3+/−0.17×10^−3.

As for `[Xe]` [Xenon], the “minimum alveolar concentration (MAC)” value in data set [4] (anesthetic) was 71%. Also, in data set [4] (in vivo), the “more potent than N2O as an anesthetic” value was 50%.

Regarding hemoglobin, the oxygen release time in data set [5] is 17.5 ms.
